Publication PMC9266914, “Broad Spectrum Functional Activity of Structurally Related Monoanionic Au(III) Bis(Dithiolene) Complexes” (International Journal of Molecular Sciences, 2022)
Where two headings read alike, the source gives them in different places. Marks after values point to notes of the source that are not given here.

Key:
[1] = system: zebrafish (Danio rerio) embryos; assay: Acute toxicity (mortality) in zebrafish embryo; assay type: in vivo; settings: 72 hpf embryos, 0.1–10 μM, 48 h, in words
From the text: Toxicity is a major challenge for drug development and is the leading cause of drug failure. Consequently, the evaluation of the potential toxicity represents a critical step in the development of new drugs. In this context, the zebrafish embryo represents a notable in vivo vertebrate model for studying the toxic effects of chemical compounds due to the small size, robustness, multiple progenies from a single mating, chemical permeability, easiness of observation and maintenance under laboratory conditions. In addition, the close phylogeny of zebrafish and mammals, with highly conserved signaling pathways, makes this species increasingly used and ideal for performing toxicological studies. Therefore, we evaluated the complexes acute toxicity by measuring mortality of 72 h post-fertilization (hpf) zebrafish embryos when incubated with increasing concentrations of the Au(III) complexes for 48 h.
To test the toxicological effect of the gold (III) complexes, zebrafish (Danio rerio) embryos at developmental stage of 72 h post-fertilization (hpf) were exposed to different concentrations of the target complexes and mortality was assessed for 48 h of treatment. […]

C. albicans SC5134 [2] = assay: MIC determination, C. albicans; assay type: cell-based, Candida albicans; settings: RPMIG, 24 h, 35 °C
From the text: (§1) The bacterial strains Escherichia coli ATCC25922 and Staphylococcus aureus Newman were used in this work and maintained in Lennox Broth (LB) solid medium, composed of 10 g/L tryptone, 5 g/L yeast extract, 5 g/L NaCl and 20 g/L agar. The fungal strains Candida albicans SC5134 and C. glabrata CBS138 were used in this work and maintained in YPD solid medium, composed of 20 g/L glucose, 20 g/L peptone, 10 g/L yeast extract and 15 g/L agar. The strains were isolated from human infections.
(§2) The antimicrobial activity of the complexes towards the bacterial and fungal strains was assessed by the determination of the Minimal Inhibitory Concentration (MIC) of each complex towards the indicated microbial strains, based on standard methods, and as previously described. […] Serial 1:2 dilutions of stock solutions were prepared for each complex in Mueller–Hinton (MH) broth (Fluka Analytical) or RPMI-1640 medium (Sigma) supplemented with 20 g/L glucose and buffered with 0.165 M morpholinepropanesulphonic acid (RPMIG) to pH 7.0. Solutions prepared with MH were used for testing bacteria, while those prepared with RPMIG were used for testing fungi. For antibacterial activity assays, the final concentrations ranged from 250 to 0.24 μg/mL (when stock solution final concentration was 10 mg/mL), 125 μg/mL to 0.12 μg/mL (when stock solution final concentration was 5 mg/mL) and 62.5 to 0.06 μg/mL (when stock solution final concentration was 2.5 mg/mL). For antifungal assays, the final concentrations ranged from 125 μg/mL to 0.12 μg/mL (when stock solution final concentration was 10 mg/mL), 62.5 to 0.06 μg/mL (when stock solution final concentration was 5 mg/mL) and 31.25 to 0.03 μg/mL (when stock solution final concentration was 2.5 mg/mL). Then, 100 μL aliquots of adequately diluted bacterial suspensions of S. aureus Newman or E. coli ATCC 25922 were mixed with the MH serially diluted complexes aliquots to obtain 5 × 10^5 CFU/mL. In the case of fungi, cultures were diluted to obtain a final optical density of 0.025, measured at 530 nm (OD530). Bacterial suspensions were prepared from cultures grown for 5 h in MH broth at 37 °C and 250 rev·min^−1 and adequately diluted with fresh MH medium, while fungal suspensions were prepared from overnight cultures grown in YPD broth at 30 °C and 250 rev.min^−1 and diluted in buffered RPMIG. After 22 h of incubation at 37 °C (bacteria) or 24 h at 35 °C (fungi), the wells’ content was resuspended by pipetting and the OD640 (bacteria) or OD530 (fungi) were measured in a SPECTROstar Nano microplate reader (BMG Labtech).
(§3) At least three independent experiments were performed in duplicate for each complex under study. […] Positive (no complex) and negative controls (no inoculum) were performed for each experiment. The effect of 5% (V/V) DMSO on microbial growth was also assessed.

C. glabrata CBS138 [3] = assay: MIC determination, C. glabrata; assay type: cell-based, Candida glabrata; settings: RPMIG, 24 h, 35 °C
From the text: as §1, §2, §3

S. aureus Newman [4] = assay: MIC determination, S. aureus; assay type: cell-based, Staphylococcus aureus; settings: MH broth, 22 h, 37 °C
From the text: as §1, §2, §3

Huh7 cells = assay: Cell viability (cell confluency, Alamar Blue) of P. berghei-infected Huh7 cells; assay type: cell-based; settings: 5 µM, in words
Procedure: (§4) The in vitro liver stage activity of gold complexes was assessed against P. berghei-infected Huh7 cells, as previously described. Briefly, Huh7 cells were cultured in RPMI-1640 medium supplemented with 10% (v/v) fetal bovine serum, 1% (v/v) penicillin/streptomycin, 1% (v/v) glutamine, 1% (v/v) non-essential amino acids and 10 mM HEPES. On the day prior to infection, Huh7 cells were seeded in 96-well plates at a density of approximately 3.1 × 10^4 cell/cm^2 and incubated at 37 °C, 5% CO2. Stock solutions of the complexes were initially prepared in DMSO and serially diluted in infection medium, i.e., culture medium supplemented with gentamicin (50 µg/mL) and fungizone (0.8 µg/mL), to obtain the test concentrations. As a control, DMSO was diluted in infection medium to a percentage that equals that of the highest compound concentrations tested. These dilutions were added to the cells in triplicates and incubated for 1 h at 37 °C, 5% CO2, after which 1 × 10^4 luciferase-expressing P. berghei sporozoites were added to each well. Plates were centrifuged at 1800× g for 5 min at room temperature and incubated for the duration of the assay. At 46 h post-infection (hpi), the impact of each compound concentration on cell viability was assessed by the Alamar Blue (Invitrogen, Buckinghamshire, UK) assay, according to the manufacturer’s recommendations. Infection was next assessed by bioluminescence, employing the Firefly Luciferase Assay Kit 2.0 (Biotium, Fremont, CA, USA), according to the manufacturer’s recommendations. For IC50 determination, nonlinear regression analysis was employed to fit the normalized results of the dose–response curves, using GraphPad Prism 8 (GraphPad software, La Jolla, CA, USA).

E. coli ATCC25922 [5] = assay: MIC determination, E. coli; assay type: cell-based, Escherichia coli; settings: MH broth, 22 h, 37 °C
From the text: as §1, §2, §3

[6] = system: A2780 ovarian cancer cells; assay: MTT cytotoxicity assay in A2780 (cisplatin sensitive) ovarian cancer cells; assay type: cell-based, human
Procedure: (§5) Cells were exposed to increasing concentrations of the complexes (0.01–100 μM) for 24 and/or 48 h, at 37 °C. The IC50 values were calculated from dose–response curves using the colorimetric MTT assay. […] Most complexes presented a similar cytotoxicity profile compared to Auranofin, but higher activity compared to Cisplatin, and, most importantly, were active in the Cisplatin-resistant OVCAR8 cells (Table 2).
(§6) The cytotoxic activity of the complexes was evaluated in the A2780 (cisplatin sensitive) (Sigma-Aldrich) and OVCAR8 (cisplatin resistant) (ATCC) ovarian cancer cells. Cells were grown in RPMI-1640 medium (Gibco, Thermo Fisher) supplemented with 10% fetal bovine serum (FBS) and were maintained at 37 °C in a humidified atmosphere with 5% CO2. The complexes were initially dissolved in DMSO and then in culture medium to prepare serial dilutions in the range 10^−9–10^−4 M. After 24 and/or 48 h incubation the cellular viability was measured by the colorimetric MTT assay, as previously described.

[7] = system: OVCAR8 ovarian cancer cells; assay: MTT cytotoxicity assay in OVCAR8 (cisplatin resistant) ovarian cancer cells; assay type: cell-based, human; settings: 48 h incubation
Procedure: as §5, §6

P. berghei hepatic stage = assay: In vitro activity against the hepatic stage of P. berghei infection (luciferase, Huh7 cells); assay type: cell-based, Plasmodium berghei; settings: hepatic stage, Huh7 cells, 46 hpi
Procedure: as §4

C. glabrata CBS138 [8] = system: C. glabrata CBS138; design: method as in PMID 32391537; settings: complexes starred as Complex 1 / Complex 2; cited from earlier work
C. albicans SC5134 [9] = system: C. albicans SC5134; design: method as in PMID 32391537; settings: complexes starred as Complex 1 / Complex 2; cited from earlier work
[10] = system: A2780 ovarian cancer cells; design: method as in PMID 32391537; settings: MTT, starred values, cited from earlier work
E. coli ATCC25922 [11] = system: E. coli ATCC25922; design: method as in PMID 32391537; settings: complexes starred as Complex 1 / Complex 2; cited from earlier work
S. aureus Newman [12] = system: S. aureus Newman; design: method as in PMID 32391537; settings: complexes starred as Complex 1 / Complex 2; cited from earlier work
[13] = 24 h incubation, read-out: IC50 A2780, 24 h
[14] = 48 h incubation, read-out: IC50 A2780, 48 h

SMILES	toxicity in zebrafish embryo [1]	MIC C. albicans SC5134 (C. albicans SC5134 [2])	MIC C. glabrata CBS138 (C. glabrata CBS138 [3]) [µg/mL]	MIC S. aureus Newman (S. aureus Newman [4]) [µg/mL]	toxicity seen as lower cell confluency (Huh7 cells)	MIC E. coli ATCC25922 (E. coli ATCC25922 [5]) [µg/mL]	IC50 [6, 13] [nM]	IC50 [6, 14] [nM]	IC50 [7] [nM]	IC50 (P. berghei hepatic stage) [nM]	MIC C. glabrata CBS138 (C. glabrata CBS138 [8]) [µg/mL]	MIC C. albicans SC5134 (C. albicans SC5134 [9]) [µg/mL]	IC50 [10, 13] [nM]	IC50 [10, 14] [nM]	MIC E. coli ATCC25922 (E. coli ATCC25922 [11]) [µg/mL]	MIC S. aureus Newman (S. aureus Newman [12]) [µg/mL]
CCn1c2c(sc1=O)[S][Au-]1([S]c3sc(=O)n(CC)c3[S]1)[S]2.c1ccc([P+](c2ccccc2)(c2ccccc2)c2ccccc2)cc1 [[P][AuSEt(=O)]]	more toxic than [P][AuSEt(=S)]	>62.5 µg/mL	>62.5	>125	some degree of toxicity	>125	860 ± 110	310 ± 100	1160 ± 210							
CCN1C(=C(C#N)C#N)SC2=C1[S][Au-]1([S]2)[S]C2=C([S]1)N(CC)C(=C(C#N)C#N)S2.CC[N+](CC)(CC)CC [[N][AuSEt(=C(CN)2)]]	more toxic than [N][AuSEt(=S)]	>62.5 µg/mL	>62.5	>125	some degree of toxicity	>125	1320 ± 200	170	1480 ± 410							
CC[N+](CC)(CC)CC.Cn1c2c(sc1=S)[S][Au-]1([S]c3sc(=S)n(C)c3[S]1)[S]2 [[N][AuSMe(=S)]]		>62.5 *** µg/mL	2.9 ± 0.9	4.4 ± 0.2	some degree of toxicity	>250	1630 ± 400	110	2440 ± 780	429 ± 39.6						
CCCn1c2c(sc1=S)[S][Au-]1([S]c3sc(=S)n(CCC)c3[S]1)[S]2.c1ccc([P+](c2ccccc2)(c2ccccc2)c2ccccc2)cc1 [[P][AuSPr(=S)]]											>125	>125	4600 ± 1150	520 ± 230	>125	>125
CCCn1c2c(sc1=[Se])[S][Au-]1([S]c3sc(=[Se])n(CCC)c3[S]1)[S]2.c1ccc([P+](c2ccccc2)(c2ccccc2)c2ccccc2)cc1 [[P][AuSPr(=Se)]]		62.5 µg/mL	>62.5	>125	some degree of toxicity	>125	620 ± 190	550 ± 410	800 ± 180	643.9 ± 1.34						
CC[N+](CC)(CC)CC.CCn1c2c(sc1=S)[S][Au-]1([S]c3sc(=S)n(CC)c3[S]1)[S]2 [[N][AuSEt(=S)]]									3760 ± 710		9.7 ± 2.7	19.9 ± 2.4	4230 ± 800	1300 ± 320	>125	12.1 ± 3.9
